Assay results reported in ChEMBL document CHEMBL5113525, “Discovery of the Novel 1H-Pyrrolo[2,3-b]pyridine Derivative as a Potent Type II CDK8 Inhibitor against Colorectal Cancer” (J Med Chem, 2022).

How the values were obtained:
[1] = Half life in Sprague-Dawley rat at 10 mg/kg, po measured upto 12 hrs by LC-MS/MS analysis; type: ADME, organism-based; settings: in vivo
[2] = MRT in Sprague-Dawley rat at 10 mg/kg, po measured upto 12 hrs by LC-MS/MS analysis; type: ADME, organism-based; settings: in vivo
[3] = Cmax in Sprague-Dawley rat at 10 mg/kg, po measured upto 12 hrs by LC-MS/MS analysis; type: ADME, organism-based; set-up: time < 12 hrs, dose 10 mg/kg, route po; settings: in vivo
[4] = Clearance in Sprague-Dawley rat at 5 mg/kg, iv measured upto 12 hrs by LC-MS/MS analysis; type: ADME, organism-based; settings: in vivo
[5] = target: Tyrosine-protein kinase receptor UFO (Homo sapiens) (UniProt P30530); assay: Inhibition of human AXL at 1 uM relative to control
[6] = target: Dual specificity protein kinase CLK1 (Homo sapiens) (UniProt P49759); assay: Inhibition of human CLK1 at 1 uM relative to control
Sequence of Dual specificity protein kinase CLK1 (Homo sapiens) (P49759 whole entry, looked up): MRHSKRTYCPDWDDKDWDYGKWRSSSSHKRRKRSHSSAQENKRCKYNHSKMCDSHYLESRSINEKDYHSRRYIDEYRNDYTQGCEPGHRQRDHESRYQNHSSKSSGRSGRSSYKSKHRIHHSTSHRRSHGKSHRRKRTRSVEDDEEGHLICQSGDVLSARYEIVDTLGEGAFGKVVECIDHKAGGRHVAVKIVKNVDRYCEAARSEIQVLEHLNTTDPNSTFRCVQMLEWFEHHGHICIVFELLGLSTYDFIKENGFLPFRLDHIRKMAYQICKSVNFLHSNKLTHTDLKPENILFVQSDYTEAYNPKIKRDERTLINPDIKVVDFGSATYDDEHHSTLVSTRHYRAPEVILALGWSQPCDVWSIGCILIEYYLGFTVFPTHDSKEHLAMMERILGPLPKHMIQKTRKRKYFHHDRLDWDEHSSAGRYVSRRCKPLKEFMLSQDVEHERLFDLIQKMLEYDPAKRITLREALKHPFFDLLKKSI

[7] = target: Dual specificity protein kinase CLK2 (Homo sapiens) (UniProt P49760); assay: Inhibition of human CLK2 at 1 uM relative to control
[8] = target: Dual specificity protein kinase CLK4 (Homo sapiens) (UniProt Q9HAZ1); assay: Inhibition of human CLK4 at 1 uM relative to control
Sequence of Dual specificity protein kinase CLK4 (Homo sapiens) (Q9HAZ1 whole entry, looked up, the tested form may be a part): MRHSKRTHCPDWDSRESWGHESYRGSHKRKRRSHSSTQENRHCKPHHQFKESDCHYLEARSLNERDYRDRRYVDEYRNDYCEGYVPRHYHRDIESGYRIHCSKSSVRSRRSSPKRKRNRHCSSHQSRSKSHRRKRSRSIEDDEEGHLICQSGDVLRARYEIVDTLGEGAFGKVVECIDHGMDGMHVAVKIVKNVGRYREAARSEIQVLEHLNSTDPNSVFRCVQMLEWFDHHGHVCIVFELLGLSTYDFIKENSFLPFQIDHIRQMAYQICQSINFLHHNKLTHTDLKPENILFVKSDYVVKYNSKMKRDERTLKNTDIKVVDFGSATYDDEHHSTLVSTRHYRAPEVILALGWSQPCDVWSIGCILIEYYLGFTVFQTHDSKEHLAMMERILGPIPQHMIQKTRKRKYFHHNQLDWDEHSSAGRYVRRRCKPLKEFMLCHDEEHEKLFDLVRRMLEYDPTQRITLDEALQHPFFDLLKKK

[9] = target: Epithelial discoidin domain-containing receptor 1 (Homo sapiens) (UniProt Q08345); assay: Inhibition of human DDR1 at 1 uM relative to control
Sequence of Epithelial discoidin domain-containing receptor 1 (Homo sapiens) (Q08345 whole entry, the tested form may be a part): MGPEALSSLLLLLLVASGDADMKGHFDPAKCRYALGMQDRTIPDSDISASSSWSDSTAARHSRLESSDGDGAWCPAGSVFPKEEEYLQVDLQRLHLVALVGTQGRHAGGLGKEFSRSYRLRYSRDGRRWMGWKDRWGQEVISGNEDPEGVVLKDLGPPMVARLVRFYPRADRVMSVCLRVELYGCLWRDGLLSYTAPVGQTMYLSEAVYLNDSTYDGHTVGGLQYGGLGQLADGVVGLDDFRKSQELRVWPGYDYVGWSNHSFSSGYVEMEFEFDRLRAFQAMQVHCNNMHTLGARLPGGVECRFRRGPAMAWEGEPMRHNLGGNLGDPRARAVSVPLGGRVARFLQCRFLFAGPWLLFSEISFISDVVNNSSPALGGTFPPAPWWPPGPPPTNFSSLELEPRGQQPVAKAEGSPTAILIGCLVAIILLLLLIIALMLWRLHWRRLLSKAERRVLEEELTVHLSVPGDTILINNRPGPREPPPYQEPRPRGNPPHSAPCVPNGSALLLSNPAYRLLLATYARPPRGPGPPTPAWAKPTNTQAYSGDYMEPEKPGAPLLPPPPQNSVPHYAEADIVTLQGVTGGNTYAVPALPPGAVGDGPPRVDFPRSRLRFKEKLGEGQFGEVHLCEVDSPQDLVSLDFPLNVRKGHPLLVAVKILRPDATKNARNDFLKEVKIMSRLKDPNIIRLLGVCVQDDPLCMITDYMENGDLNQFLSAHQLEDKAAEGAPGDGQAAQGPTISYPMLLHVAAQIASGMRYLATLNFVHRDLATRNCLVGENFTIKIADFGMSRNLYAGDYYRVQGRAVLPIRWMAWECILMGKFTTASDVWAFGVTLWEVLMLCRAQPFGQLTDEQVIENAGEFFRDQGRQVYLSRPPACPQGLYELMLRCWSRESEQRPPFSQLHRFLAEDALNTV

[10] = target: Fibroblast growth factor receptor 4 (Homo sapiens) (UniProt P22455); assay: Inhibition of human FGFR4 at 1 uM relative to control
Sequence of Fibroblast growth factor receptor 4 (Homo sapiens) (P22455 22-802 limits assumed): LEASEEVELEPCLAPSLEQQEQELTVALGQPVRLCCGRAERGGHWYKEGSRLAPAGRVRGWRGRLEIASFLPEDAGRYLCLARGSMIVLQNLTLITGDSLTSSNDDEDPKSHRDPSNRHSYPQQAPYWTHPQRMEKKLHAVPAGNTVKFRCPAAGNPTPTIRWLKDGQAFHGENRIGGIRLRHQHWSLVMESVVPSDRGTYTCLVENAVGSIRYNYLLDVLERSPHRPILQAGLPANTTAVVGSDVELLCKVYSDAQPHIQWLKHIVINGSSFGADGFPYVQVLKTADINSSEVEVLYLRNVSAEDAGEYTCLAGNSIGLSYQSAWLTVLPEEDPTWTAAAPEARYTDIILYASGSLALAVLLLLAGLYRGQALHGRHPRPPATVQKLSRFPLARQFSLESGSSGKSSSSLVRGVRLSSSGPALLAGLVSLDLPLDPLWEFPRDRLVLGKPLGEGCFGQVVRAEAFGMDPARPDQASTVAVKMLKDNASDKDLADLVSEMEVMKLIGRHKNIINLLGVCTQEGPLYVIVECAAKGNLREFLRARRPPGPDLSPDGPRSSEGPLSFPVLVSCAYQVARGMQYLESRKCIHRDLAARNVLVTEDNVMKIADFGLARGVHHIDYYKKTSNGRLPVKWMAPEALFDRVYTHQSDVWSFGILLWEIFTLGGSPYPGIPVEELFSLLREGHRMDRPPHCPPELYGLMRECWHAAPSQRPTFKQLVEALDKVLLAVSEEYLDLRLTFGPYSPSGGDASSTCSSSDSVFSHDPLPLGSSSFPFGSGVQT

[11] = target: Mitogen-activated protein kinase kinase kinase 9 (Homo sapiens) (UniProt P80192); assay: Inhibition of human MLK1 at 1 uM relative to control
[12] = target: Mitogen-activated protein kinase kinase kinase 10 (Homo sapiens) (UniProt Q02779); assay: Inhibition of human MLK2 at 1 uM relative to control
[13] = target: Mitogen-activated protein kinase kinase kinase 21 (Homo sapiens) (UniProt Q5TCX8); assay: Inhibition of human MLK4 at 1 uM relative to control
Sequence of Mitogen-activated protein kinase kinase kinase 21 (Homo sapiens) (Q5TCX8 whole entry): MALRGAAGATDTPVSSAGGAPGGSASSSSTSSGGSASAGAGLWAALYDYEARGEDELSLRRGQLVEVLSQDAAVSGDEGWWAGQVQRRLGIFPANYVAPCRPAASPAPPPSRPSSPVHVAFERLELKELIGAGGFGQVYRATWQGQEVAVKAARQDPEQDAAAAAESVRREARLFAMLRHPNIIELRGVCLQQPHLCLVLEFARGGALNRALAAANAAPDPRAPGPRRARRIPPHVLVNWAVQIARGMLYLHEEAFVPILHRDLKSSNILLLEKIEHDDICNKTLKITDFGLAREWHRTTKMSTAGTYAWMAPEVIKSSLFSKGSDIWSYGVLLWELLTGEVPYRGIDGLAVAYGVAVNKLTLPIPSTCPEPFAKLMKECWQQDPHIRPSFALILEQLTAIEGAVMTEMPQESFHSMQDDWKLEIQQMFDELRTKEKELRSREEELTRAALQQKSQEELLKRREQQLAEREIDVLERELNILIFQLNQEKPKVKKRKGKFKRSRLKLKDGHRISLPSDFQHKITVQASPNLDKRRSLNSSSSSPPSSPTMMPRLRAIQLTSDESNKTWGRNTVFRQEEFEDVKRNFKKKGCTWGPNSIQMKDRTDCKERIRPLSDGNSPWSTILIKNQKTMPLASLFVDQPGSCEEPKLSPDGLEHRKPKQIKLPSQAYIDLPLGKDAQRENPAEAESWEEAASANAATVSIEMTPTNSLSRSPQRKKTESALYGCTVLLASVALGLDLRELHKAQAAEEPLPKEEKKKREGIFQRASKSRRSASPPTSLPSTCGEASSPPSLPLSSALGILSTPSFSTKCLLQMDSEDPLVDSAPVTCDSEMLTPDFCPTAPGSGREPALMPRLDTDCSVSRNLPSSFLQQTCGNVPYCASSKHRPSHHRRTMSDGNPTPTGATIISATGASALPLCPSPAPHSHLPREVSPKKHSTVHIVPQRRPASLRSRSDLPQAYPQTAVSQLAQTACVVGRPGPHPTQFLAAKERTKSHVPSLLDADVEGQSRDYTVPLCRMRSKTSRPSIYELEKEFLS

[14] = target: Serine/threonine-protein kinase mTOR (Homo sapiens) (UniProt P42345); assay: Inhibition of human MTOR at 1 uM relative to control
[15] = target: Serine/threonine-protein kinase pim-1 (Homo sapiens) (UniProt P11309); assay: Inhibition of human PIM1 at 1 uM relative to control
[16] = target: Serine/threonine-protein kinase pim-2 (Homo sapiens) (UniProt Q9P1W9); assay: Inhibition of human PIM2 at 1 uM relative to control
Sequence of Serine/threonine-protein kinase pim-2 (Homo sapiens) (Q9P1W9 whole entry, looked up): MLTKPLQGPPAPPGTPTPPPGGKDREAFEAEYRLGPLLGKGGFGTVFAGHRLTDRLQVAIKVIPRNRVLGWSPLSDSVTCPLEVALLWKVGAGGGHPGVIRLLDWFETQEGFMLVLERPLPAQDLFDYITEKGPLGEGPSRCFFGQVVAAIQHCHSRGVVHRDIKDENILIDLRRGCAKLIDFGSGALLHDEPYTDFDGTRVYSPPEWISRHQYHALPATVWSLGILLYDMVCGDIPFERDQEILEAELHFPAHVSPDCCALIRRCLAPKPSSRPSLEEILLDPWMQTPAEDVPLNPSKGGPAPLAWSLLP

[17] = target: High affinity nerve growth factor receptor (Homo sapiens) (UniProt P04629); assay: Inhibition of human TRKA at 1 uM relative to control
Sequence of High affinity nerve growth factor receptor (Homo sapiens) (P04629 33-796 limits assumed): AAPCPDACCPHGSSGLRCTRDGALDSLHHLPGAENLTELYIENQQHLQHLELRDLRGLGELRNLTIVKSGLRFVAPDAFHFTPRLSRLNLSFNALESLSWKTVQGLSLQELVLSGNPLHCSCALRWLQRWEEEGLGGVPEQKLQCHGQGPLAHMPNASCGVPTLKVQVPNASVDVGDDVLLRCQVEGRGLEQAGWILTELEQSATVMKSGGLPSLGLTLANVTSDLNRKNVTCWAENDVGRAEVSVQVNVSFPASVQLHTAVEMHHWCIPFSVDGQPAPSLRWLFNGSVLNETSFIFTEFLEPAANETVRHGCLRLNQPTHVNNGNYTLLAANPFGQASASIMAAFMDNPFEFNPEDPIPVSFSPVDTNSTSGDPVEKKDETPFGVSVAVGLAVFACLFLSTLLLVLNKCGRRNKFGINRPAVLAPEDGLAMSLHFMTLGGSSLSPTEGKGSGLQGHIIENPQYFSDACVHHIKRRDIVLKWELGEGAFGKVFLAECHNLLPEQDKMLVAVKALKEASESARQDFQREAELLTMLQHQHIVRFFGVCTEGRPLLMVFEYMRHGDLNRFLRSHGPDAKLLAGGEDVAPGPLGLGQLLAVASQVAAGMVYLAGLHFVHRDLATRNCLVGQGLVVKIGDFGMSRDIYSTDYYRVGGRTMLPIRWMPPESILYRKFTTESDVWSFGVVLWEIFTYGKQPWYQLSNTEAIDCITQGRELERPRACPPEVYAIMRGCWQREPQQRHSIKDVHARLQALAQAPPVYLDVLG

[18] = target: 3-phosphoinositide-dependent protein kinase 1 (Homo sapiens) (UniProt O15530); assay: Inhibition of human PDK1 at 1 uM relative to control

half-life [1]: 1.21 h
MRT [2]: 2.02 h
Cmax [3]: 498 ng/mL
CL [4]: 188.7 mL/min/kg
inhibition [5]: 38%
inhibition [6]: 10%
inhibition [7]: 9%
inhibition [8]: 6%
inhibition [9]: 36%
inhibition [10]: 0%
inhibition [11]: 7%
inhibition [12]: 5%
inhibition [13]: 0%
inhibition [14]: 5%
inhibition [15]: 0%
inhibition [16]: 0%
inhibition [17]: 25%
inhibition [18]: 0%
Structure (SMILES): Cc1ccc(NC(=O)CCc2cccc(-c3cnc4[nH]ccc4c3)c2)cc1C(F)(F)F
